In US20240398817A1, “CARDIO- AND RENOSAFE ANTIDIABETIC THERAPY” (priority 2018, published 2024):

Test system: patients with type 2 diabetes at high vascular risk
Experiment: Cardiovascular and Renal Outcomes Trial: linagliptin 5 mg once daily vs placebo on top of standard of care
Assay type: in vivo
Conditions: for Hazard ratio for hospitalised heart failure: vs placebo
Description: The effect of linagliptin on cardiovascular risk in adult patients with type 2 diabetes mellitus and with increased CV risk evidenced by a history of established macrovascular or renal disease (e.g. as defined herein) was evaluated in a multi-center, multi-national, randomized, double-blind parallel group trial. The trial compared the risk of experiencing a major adverse cardiovascular event (MACE) between linagliptin and placebo when these were added to and used concomitantly with standard of care treatments for diabetes (HbA1c), cardiovascular risk factors and renal disease.
The primary endpoint in this trial was the time to first occurrence of three point (3P) MACE. A major adverse cardiac event was defined as a cardiovascular death or a nonfatal myocardial infarction (MI) or a nonfatal stroke. The statistical analysis plan tested for non-inferiority for the occurrence of (3P) MACE. […] The secondary endpoint was a renal composite, defined as renal death or sustained end stage renal disease or sustained decrease of 40% or more in eGFR.
Type 2 diabetes patient with insufficient glycemic control (naïve or pre-treated with any antidiabetic background medication, excluding treatment with GLP-1 receptor agonists, DPP-4inhibitors or SGLT-2 inhibitors if ≥consecutive 7 days, e.g. having HbA1c 6.5-10%), and high risk of cardiovascular events, e.g. defined by: • albuminuria (micro or macro) and previous macrovascular disease: e.g. defined according to Condition I as indicated below; • and/or • impaired renal function: e.g. as defined according to Condition II as indicated below;
Background and aims: People with type 2 diabetes (T2D) are at increased risk for hospitalization for heart failure (hHF), particularly in the setting of concomitant cardiovascular (CV) and/or kidney disease. […] Here we present analyses of HF outcomes with the DPP-4 inhibitor linagliptin (LINA) vs. placebo (PBO) from a Cardiovascular and Renal Outcomes Trial assessing cardiovascular safety and renal microvascular outcome in patients with type 2 diabetes at high vascular risk, a large CV outcomes trial that enrolled participants with T2D at high risk for hHF due to concomitant CV and/or chronic kidney disease. Materials and methods: People with T2D and concomitant CV and/or kidney disease were randomized to receive LINA 5 mg, or PBO once daily (1:1), on top of standard of care. All hHF, CV outcomes, and deaths were centrally adjudicated, with individual and composite HF-related outcomes analyses comparing LINA vs. placebo. Investigator-reported HF-related adverse events, whether or not confirmed by adjudication, were also analyzed. A Cox proportional hazards model adjusting for region and history of HF was used for analyses of first events. Recurrent hHF events were analyzed using a negative binomial model.
Methods: The present Cardiovascular and Renal Outcomes Trial randomized people with T2D and i) concomitant CV disease with UACR >30 mg/g or ii) prevalent CKD (i.e. GFR <45 ml/min/1.73m2 and/or UACR >200 mg/g) to receive the DPP-4 inhibitor linagliptin (5 mg) or placebo once daily in a double-blind fashion. The primary CV endpoint was 3P-MACE, with a key secondary kidney endpoint (adjudicated ESKD, renal death, or sustained ≥40% decrease in eGFR from baseline) and other renal outcomes (including albuminuria and eGFR slope) also assessed. Subgroups were assessed by baseline kidney function (eGFR ≥/<45 ml/min/1.73m2and eGFR ≥/<30, 45 or 60 ml/min/1.73m2).
Adults with type 2 diabetes, HbA1c 6.5-10.0% inclusive, and high CV risk were eligible for inclusion. […] Macrovascular disease eligibility criteria was based on documented and confirmed history of myocardial infarction, coronary artery disease, stroke, carotid artery disease, or peripheral artery disease. Participants with end-stage kidney disease (ESKD), defined as eGFR <15 or requiring maintenance dialysis, were excluded.

[1] = CKD prognosis by KDIGO Very high
[2] = Calcium channel blockers (CCB) No
[3] = Calcium channel blockers (CCB) Yes
[4] = Cardiorenal risk: Albuminuria and previous macrovascular disease plus eGFR 45-75 mL/min/1.73 m^2 with an UACR >200 mg/g
[5] = Cardiorenal risk: Albuminuria and previous macrovascular disease plus renal impairment (eGFR 15-<45 mL/min/1.73 m^2 with any UACR mg/g)
[6] = Cardiorenal risk: Albuminuria and previous macrovascular disease without eGFR>45 mL/min/1.73 m2
[7] = Duration of type 2 diabetes >5 to <10 years
[8] = Duration of type 2 diabetes ≤5 years

`CC#CCn1c(N2CCC[C@@H](N)C2)nc2c1c(=O)n(Cc1nc(C)c3ccccc3n1)c(=O)n2C` [Linagliptin, 1-[(4-methyl-quinazolin-2-yl)methyl]-3-methyl-7-(2-butyn-1-yl)-8-(3-(R)-amino-piperidin-1-yl)-xanthine] was tested, and the “3-point MACE: hazard ratio vs placebo” value (Body mass index ≥30 kg/m^2) was 1.06, the “3-point MACE: patients with event/patients analyzed” value (Body mass index ≥30 kg/m^2) was 243/1978 and the “Key secondary kidney outcome: hazard ratio vs placebo” value (Body mass index ≥30 kg/m^2) was 0.96. The “Key secondary kidney outcome: patients with event/patients analyzed” value (Body mass index ≥30 kg/m^2) was 165/1978, the “Patients with event/patients analysed, hospitalised heart failure” value (from here on “Patients with event/patients analysed”) (Body mass index ≥30 kg/m^2) was 131/1978 and the “Hazard ratio for hospitalised heart failure” value (Body mass index ≥30 kg/m^2) was 0.86. For the same molecule, the “3-point MACE: hazard ratio vs placebo” value (CKD prognosis by KDIGO High) was 1.05, the “3-point MACE: patients with event/patients analyzed” value (CKD prognosis by KDIGO High) was 111/995 and the “Key secondary kidney outcome: patients with event/patients analyzed” value (CKD prognosis by KDIGO High) was 57/995. The “Patients with event/patients analysed” value (CKD prognosis by KDIGO High) was 45/995, the “3-point MACE: hazard ratio vs placebo” value (CKD prognosis by KDIGO Low) was 1.13 and the “3-point MACE: patients with event/patients analyzed” value (CKD prognosis by KDIGO Low) was 11/232. For the same molecule, the “Key secondary kidney outcome: patients with event/patients analyzed” value (CKD prognosis by KDIGO Low) was 8/232, the “Patients with event/patients analysed” value (CKD prognosis by KDIGO Low) was 2/232 and the “3-point MACE: hazard ratio vs placebo” value (CKD prognosis by KDIGO Medium) was 0.89. For the same molecule, the “3-point MACE: patients with event/patients analyzed” value (CKD prognosis by KDIGO Medium) was 61/766, the “Key secondary kidney outcome: patients with event/patients analyzed” value (CKD prognosis by KDIGO Medium) was 14/766 and the “Patients with event/patients analysed” value (CKD prognosis by KDIGO Medium) was 18/766. The “3-point MACE: hazard ratio vs placebo” value [1] was 1.04, the “3-point MACE: patients with event/patients analyzed” value [1] was 250/1499 and the “Key secondary kidney outcome: patients with event/patients analyzed” value [1] was 248/1499. For the same molecule, the “Patients with event/patients analysed” value [1] was 144/1499, the “Patients with event/patients analysed” value [2] was 113/2061 and the “Hazard ratio for hospitalised heart failure” value [2] was 0.86. The “Patients with event/patients analysed” value [3] was 96/1433, the “Hazard ratio for hospitalised heart failure” value [3] was 0.94 and the “3-point MACE: hazard ratio vs placebo” value (Calcium channel blockers No) was 0.91. For the same molecule, the “3-point MACE: patients with event/patients analyzed” value (Calcium channel blockers No) was 239/2061, the “Key secondary kidney outcome: hazard ratio vs placebo” value (Calcium channel blockers No) was 1.03 and the “Key secondary kidney outcome: patients with event/patients analyzed” value (Calcium channel blockers No) was 155/2061. For the same molecule, the “3-point MACE: hazard ratio vs placebo” value (Calcium channel blockers Yes) was 1.21, the “3-point MACE: patients with event/patients analyzed” value (Calcium channel blockers Yes) was 195/1433 and the “Key secondary kidney outcome: hazard ratio vs placebo” value (Calcium channel blockers Yes) was 1.05. The “Key secondary kidney outcome: patients with event/patients analyzed” value (Calcium channel blockers Yes) was 172/2860, the “3-point MACE: hazard ratio vs placebo” value (Cardiorenal risk Cat A) was 0.97 and the “3-point MACE: patients with event/patients analyzed” value (Cardiorenal risk Cat A) was 117/1361. For the same molecule, the “Key secondary kidney outcome: hazard ratio vs placebo” value (Cardiorenal risk Cat A) was 1.22, the “Key secondary kidney outcome: patients with event/patients analyzed” value (Cardiorenal risk Cat A) was 38/1361 and the “3-point MACE: hazard ratio vs placebo” value (Cardiorenal risk Cat B) was 0.92. The “3-point MACE: patients with event/patients analyzed” value (Cardiorenal risk Cat B) was 86/394, the “Key secondary kidney outcome: hazard ratio vs placebo” value (Cardiorenal risk Cat B) was 0.79 and the “Key secondary kidney outcome: patients with event/patients analyzed” value (Cardiorenal risk Cat B) was 51/394. The “3-point MACE: hazard ratio vs placebo” value (Cardiorenal risk Cat C) was 0.76, the “3-point MACE: patients with event/patients analyzed” value (Cardiorenal risk Cat C) was 33/253 and the “Key secondary kidney outcome: hazard ratio vs placebo” value (Cardiorenal risk Cat C) was 1.53. For the same molecule, the “Key secondary kidney outcome: patients with event/patients analyzed” value (Cardiorenal risk Cat C) was 23/253, the “3-point MACE: hazard ratio vs placebo” value (Cardiorenal risk Cat D) was 1.12 and the “3-point MACE: patients with event/patients analyzed” value (Cardiorenal risk Cat D) was 163/1153. For the same molecule, the “Key secondary kidney outcome: hazard ratio vs placebo” value (Cardiorenal risk Cat D) was 1.01, the “Key secondary kidney outcome: patients with event/patients analyzed” value (Cardiorenal risk Cat D) was 180/1153 and the “3-point MACE: hazard ratio vs placebo” value (Cardiorenal risk Cat E) was 1.13. For the same molecule, the “3-point MACE: patients with event/patients analyzed” value (Cardiorenal risk Cat E) was 32/309, the “Key secondary kidney outcome: hazard ratio vs placebo” value (Cardiorenal risk Cat E) was 1.04 and the “Key secondary kidney outcome: patients with event/patients analyzed” value (Cardiorenal risk Cat E) was 35/309. The “Patients with event/patients analysed” value [4] was 67/647, the “Hazard ratio for hospitalised heart failure” value [4] was 0.81 and the “Patients with event/patients analysed” value [5] was 95/14612. The “Hazard ratio for hospitalised heart failure” value [5] was 0.86, the “Patients with event/patients analysed” value [6] was 46/1361 and the “Hazard ratio for hospitalised heart failure” value [6] was 1.19. The “3-point MACE: hazard ratio vs placebo” value (Diuretics No) was 1.15, the “3-point MACE: patients with event/patients analyzed” value (Diuretics No) was 159/1602 and the “Key secondary kidney outcome: hazard ratio vs placebo” value (Diuretics No) was 1.06. For the same molecule, the “Key secondary kidney outcome: patients with event/patients analyzed” value (Diuretics No) was 129/1602, the “Patients with event/patients analysed” value (Diuretics No) was 53/1602 and the “Hazard ratio for hospitalised heart failure” value (Diuretics No) was 1.26. For the same molecule, the “3-point MACE: hazard ratio vs placebo” value (Diuretics Yes) was 0.97, the “3-point MACE: patients with event/patients analyzed” value (Diuretics Yes) was 275/1892 and the “Key secondary kidney outcome: hazard ratio vs placebo” value (Diuretics Yes) was 1.04. For the same molecule, the “Key secondary kidney outcome: patients with event/patients analyzed” value (Diuretics Yes) was 198/1892, the “Patients with event/patients analysed” value (Diuretics Yes) was 156/1892 and the “Hazard ratio for hospitalised heart failure” value (Diuretics Yes) was 0.83. For the same molecule, the “3-point MACE: hazard ratio vs placebo” value [7] was 1.01, the “3-point MACE: patients with event/patients analyzed” value [7] was 73/696 and the “Key secondary kidney outcome: hazard ratio vs placebo” value [7] was 0.94. The “Key secondary kidney outcome: patients with event/patients analyzed” value [7] was 56/699, the “Patients with event/patients analysed” value [7] was 42/696 and the “Hazard ratio for hospitalised heart failure” value [7] was 0.96. For the same molecule, the “3-point MACE: hazard ratio vs placebo” value [8] was 0.98, the “3-point MACE: patients with event/patients analyzed” value [8] was 45/521 and the “Key secondary kidney outcome: hazard ratio vs placebo” value [8] was 1.97. The “Key secondary kidney outcome: patients with event/patients analyzed” value [8] was 41/521, the “Patients with event/patients analysed” value [8] was 18/521 and the “Hazard ratio for hospitalised heart failure” value [8] was 0.82. The “3-point MACE: hazard ratio vs placebo” value (Duration of type 2 diabetes ≥10 years) was 1.03.
